One experiment deals with FKBP12 (Homo sapiens, UniProt P62942). Description: FKBP12 PPIase assay (inhibition of peptidyl-prolyl isomerase activity). Type of experiment: biochemical. To be noted: 6 concentrations in duplicate, data fitted to a Ki curve.
The nature of experiment [1]: Murine PLP T cell proliferation assay (PLP assay). Type of experiment: cell-based. Conditions: Mus musculus, off-target (mTOR-driven) immunosuppressive potency.
Experimental: Activity of mTOR inhibitors was measured in two different antigen-specific murine T cell proliferation assays (as described in Young et al., 2000). […] In a second type of assay, lymph nodes obtained from PLP TCR transgenic mice are simulated with PLP peptide in culture in a primary stimulation assay.

Sequence of FKBP12 (P62942 whole entry, species assumed): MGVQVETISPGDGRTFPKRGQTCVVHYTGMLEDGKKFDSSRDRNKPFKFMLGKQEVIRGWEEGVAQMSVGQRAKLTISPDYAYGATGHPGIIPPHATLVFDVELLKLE
Experimental for FKBP12: The first order rate equation was fitted to the absorbance data to obtain a rate constant. A catalytic rate (Kenz) was calculated from the enzymatic rate minus the background rate. Kenz v inhibitor concentration was plotted to obtain the Ki value. […] All compounds were assayed at 6 concentrations in duplicate and the data fitted to a Ki curve to afford a Ki value with standard error (SE).

`CO[C@H]1C[C@@H]2CC[C@@H](C)[C@](O)(CC(=O)N3CCCC[C@H]3C(=O)OC([C@H](C)C[C@@H]3CC[C@@H](O)[C@H](O)C3)C/C=C(\C)[C@@H](O)CC(=O)[C@H](C)CC[C@H](C)/C=C/C=C/C=C/1C)O2` (stereo partly drawn) [Compound 9] registered a Ki on FKBP12 of 180 nM.

The compound `CO[C@H]1C[C@@H]2CC[C@@H](C)[C@@](O)(O2)C(=O)C(=O)N2CCCC[C@H]2C(=O)OC([C@H](C)C[C@H]2CC[C@H](O)CC2)C[C@@H](O)CC(=O)[C@H](C)CC[C@H](C)/C=C/C=C/C=C/1C` (stereo partly drawn) [Compound 4] came in with an IC50 in experiment [1] of 4460 nM.

In the case of `CO[C@H]1C[C@@H]2CC[C@@H](C)[C@@](O)(O2)C(=O)C(=O)N2CCCC[C@H]2C(=O)O[C@H](/C(C)=C/C[C@H](O)[C@H](C)C[C@H]2CC[C@H](O)CC2)CC(=O)[C@H](C)C[C@H](C)/C=C/C=C/C=C/1C` [Compound 21], the Ki at FKBP12 was determined as 95 nM.

Source of the values: US9976165B2, “Methods for increasing molecular diversity of polyketides and non-ribosomal proteins” (Isomerase Therapeutics Limited, priority 2013, dated 2018).
